One assay addresses Human LDHA (Homo sapiens (Human), UniProt P00338). In words: human LDHA primary biochemical assay (resazurin/diaphorase coupled, fluorescence). As to conditions: LDHA inhibitory activity, activity level based on IC50 (Table 7). From the text: Test compounds were placed in a Greiner Bio-One (Monroe, N.C.) 1536-well black solid bottom assay plate. 200 millimolar (mM) Tris HCl, pH 7.4, 100 micromolar […] EDTA and 0.01% TWEEN-20™, final concentration, was used as the assay buffer. The LDHA reagent was 2 nanomolar (nM) Human LDHA (Meridian Life Science, Inc., Memphis, Tenn.), final concentration, in assay buffer.
(The colour change of resazurin is a common sign of viable cells or microbes.)

For another assay, the system named is MiaPaCa2 cells. In words: cell-based HT lactate assay, colorimetric/fluorometric detection (inhibition of lactate production). The note with it: class symbols, 0 to 3 pluses.

This note sets out measurements from patent US10961200B2, “Small molecule inhibitors of lactate dehydrogenase and methods of use thereof” (THE UNITED STATES OF AMERICA, AS REPRESENTED BY THE …, priority 2014, dated 2021).

SMILES strings stand for the structures. Where only a bound is given, the exact number is not on record here.

A word on the IC50: it is the concentration needed to halve the response being measured. In the case of `CC(C)(C)Cc1cc(-c2nn(-c3nc(C(=O)O)cs3)c(CC3CC3)c2Cc2ccc(S(N)(=O)=O)c(F)c2)ccc1F` [Compound 386], the IC50 was less than 100 nM on Human LDHA and less than 1000 nM in the assay with MiaPaCa2 cells.
The matching figures for `N[S+](=O)([O-])c1ccc(Cc2c(-c3ccc(F)c(-c4cccc(CN5CCOCC5)c4)c3)nn(-c3nc(C(=O)O)cs3)c2CC2CC2)cc1F` [Compound 387]: less than 100 nM and 1000 to 10000 nM.
The matching figures for `N[S+](=O)([O-])c1ccc(Cc2c(-c3ccc(F)c(CCCCC(F)(F)F)c3)nn(-c3nc(C(=O)O)cs3)c2CC2CC2)cc1F` [Compound 388]: less than 100 nM and 1000 to 10000 nM.
The corresponding values for `CNS(=N)(=O)c1ccc(Cc2c(-c3ccc(F)c(-c4cccc(F)c4)c3)nn(-c3nc(C(=O)O)cs3)c2CC2CC2)cc1F` (stereo not shown) [Compound 389] are 100 to 1000 nM and 1000 to 10000 nM.
For `CN1CCC(c2cc(-c3nn(-c4nc(C(=O)O)cs4)c(CC4CC4)c3Cc3ccc([S+](N)(=O)[O-])c(F)c3)ccc2F)CC1` [Compound 390], the IC50 is less than 100 nM on Human LDHA and more than 57000 nM in the assay on MiaPaCa2 cells.
The corresponding values for `N[S+](=O)([O-])c1ccc(Cc2c(-c3ccc(F)c(C4CCOCC4)c3)nn(-c3nc(C(=O)O)cs3)c2CC2CC2)cc1F` [Compound 391] are less than 100 nM and less than 1000 nM.
The matching figures for `CCOC(=O)c1csc(-n2nc(-c3cccc(-c4ccccc4)c3)c(Cc3ccc(S(N)(=O)=O)c(F)c3)c2CC2CC2)n1` [Compound 393]: more than 57000 nM and more than 57000 nM.
The matching figures for `NS(=O)(=O)c1ccc(Cc2c(-c3cccc(N4CCC(F)(F)CC4)c3)nn(-c3nc(C(=O)O)cs3)c2CC2CC2)cc1F` [Compound 394]: less than 100 nM and 10000 to 57000 nM.
In the case of `NS(=O)(=O)c1ccc(Cc2c(-c3cccc(N4CCC(F)(F)C4)c3)nn(-c3nc(C(=O)O)cs3)c2CC2CC2)cc1F` [Compound 395], the IC50 on Human LDHA lay within 1000 to 57000 nM; in the assay on MiaPaCa2 cells, 10000 to 57000 nM.
Regarding `NS(=O)(=O)c1ccc(Cc2c(-c3cccc(N4CCCC(C(F)(F)F)C4)c3)nn(-c3nc(C(=O)O)cs3)c2CC2CC2)cc1F` (stereo not shown) [Compound 396], the IC50 against Human LDHA is less than 100 nM; in the assay with MiaPaCa2 cells it was 1000 to 10000 nM.
The matching figures for `NS(=O)(=O)c1ccc(Cc2c(-c3cccc(N4CCCC(F)(F)C4)c3)nn(-c3nc(C(=O)O)cs3)c2CC2CC2)cc1F` [Compound 397]: less than 100 nM and 1000 to 10000 nM.
The corresponding values for `NS(=O)(=O)c1ccc(Cc2c(-c3cccc(C(O)(C4CC4)C(F)(F)F)c3)nn(-c3nc(C(=O)O)cs3)c2CC2CC2)cc1F` (stereo not shown) [Compound 398] are less than 100 nM and 10000 to 57000 nM.
For the compound `N[S+](=O)([O-])c1ccc(Cc2c(CC3CC3)nn(-c3nc(C(=O)O)cs3)c2-c2ccc(C(O)(C3CC3)C(F)(F)F)cc2)cc1F` (stereo not shown) [Compound 399], the half-inhibitory concentration (IC50) on Human LDHA is 1000 to 57000 nM; in the assay with MiaPaCa2 cells (Homo sapiens, MIA PaCa-2), more than 57000 nM.
Turning to `NS(=O)(=O)c1ccc(Cc2c(-c3ccc(F)c(OCC4CC4(F)F)c3)nn(-c3nc(C(=O)O)cs3)c2CC2CC2)cc1F` (stereo not shown) [Compound 400], the figures for the IC50 on Human LDHA and in the assay with MiaPaCa2 cells were less than 100 nM and less than 1000 nM, respectively.
The matching figures for `CC(C)(C)C#Cc1cc(-c2nn(-c3nc(C(=O)O)cs3)c(CC3CC3)c2Cc2ccc(S(N)(=O)=O)c(F)c2)ccc1F` [Compound 402]: less than 100 nM and less than 1000 nM.
In the case of `NS(=O)(=O)c1ccc(Cc2c(-c3ccc(F)c(C#Cc4cccs4)c3)nn(-c3nc(C(=O)O)cs3)c2CC2CC2)cc1F` [Compound 403], the IC50 at Human LDHA is less than 100 nM; with MiaPaCa2 cells, less than 1000 nM.
As to `COCC#Cc1cc(-c2nn(-c3nc(C(=O)O)cs3)c(CC3CC3)c2Cc2ccc([S+](N)(=O)[O-])c(F)c2)ccc1F` [Compound 404], the IC50 is less than 100 nM on Human LDHA and less than 1000 nM in the assay on MiaPaCa2 cells (Homo sapiens, MIA PaCa-2).
On to `Cn1cncc1C#Cc1cc(-c2nn(-c3nc(C(=O)O)cs3)c(CC3CC3)c2Cc2ccc(S(N)(=O)=O)c(F)c2)ccc1F` [Compound 405], for which the IC50 on Human LDHA was less than 100 nM; in the assay with MiaPaCa2 cells it was less than 1000 nM.
The corresponding values for `NS(=O)(=O)c1ccc(Cc2c(-c3ccc(F)c(C4CC4)c3)nn(-c3nc(C(=O)O)cs3)c2CC2CC2)cc1Cl` [Compound 406] are less than 100 nM and 1000 to 10000 nM.
The corresponding values for `Cc1ccc(-c2cc(-c3nn(-c4nc(C(=O)O)cs4)c(CC4CC4)c3Cc3ccc(S(N)(=O)=O)c(Cl)c3)ccc2F)s1` [Compound 407] are less than 100 nM and less than 1000 nM.
The corresponding values for `Cc1ccc(C#Cc2cc(-c3nn(-c4nc(C(=O)O)cs4)c(CC4CC4)c3Cc3ccc(S(N)(=O)=O)c(F)c3)ccc2F)s1` [Compound 408] are less than 100 nM and less than 1000 nM.
On to `N[S+](=O)([O-])c1ccc(Cc2c(-c3ccc(F)c(C#CCCO)c3)nn(-c3nc(C(=O)O)cs3)c2CC2CC2)cc1F` [Compound 409], for which the IC50 on Human LDHA was less than 100 nM; in the assay with MiaPaCa2 cells (Homo sapiens, MIA PaCa-2) it was 1000 to 10000 nM.
On to `C#Cc1cc(-c2nn(-c3nc(C(=O)O)cs3)c(CC3CC3)c2Cc2ccc(S(N)(=O)=O)c(F)c2)ccc1F` [Compound 410], for which the IC50 against Human LDHA is less than 100 nM; with MiaPaCa2 cells it was less than 1000 nM.
As to `N[S+](=O)([O-])c1ccc(Cc2c(-c3ccc(F)c(C#CCC4CCCC4)c3)nn(-c3nc(C(=O)O)cs3)c2CC2CC2)cc1F` [Compound 411], the IC50 is less than 100 nM at Human LDHA and less than 1000 nM in the assay on MiaPaCa2 cells.
`NS(=O)(=O)c1ccc(Cc2c(-c3ccc(F)c(C#CC4(O)CCCC4)c3)nn(-c3nc(C(=O)O)cs3)c2CC2CC2)cc1F` [Compound 412]: the IC50 against Human LDHA is less than 100 nM; in the assay on MiaPaCa2 cells, 1000 to 10000 nM.
The corresponding values for `NS(=O)(=O)c1ccc(Cc2c(-c3ccc(F)c(C#CC4(F)COC4)c3)nn(-c3nc(C(=O)O)cs3)c2CC2CC2)cc1F` [Compound 414] are less than 100 nM and 1000 to 10000 nM.
The matching figures for `NS(=O)(=O)c1ccc(Cc2c(-c3ccc(F)c(C#CC4(O)COC4)c3)nn(-c3nc(C(=O)O)cs3)c2CC2CC2)cc1F` [Compound 415]: less than 100 nM and 1000 to 10000 nM.
The corresponding values for `CC1(C#Cc2cc(-c3nn(-c4nc(C(=O)O)cs4)c(CC4CC4)c3Cc3ccc(S(N)(=O)=O)c(F)c3)ccc2F)COC1` [Compound 416] are less than 100 nM and 1000 to 10000 nM.
In the case of `N[S+](=O)([O-])c1ccc(Cc2c(-c3ccc(F)c(C#CCN4CCCC4)c3)nn(-c3nc(C(=O)O)cs3)c2CC2CC2)cc1F` [Compound 417], the IC50 at Human LDHA was less than 100 nM; in the assay on MiaPaCa2 cells, 1000 to 10000 nM.
For the compound `NS(=O)(=O)c1ccc(Cc2c(-c3ccc(F)c(C#CC4(O)CCOC4)c3)nn(-c3nc(C(=O)O)cs3)c2CC2CC2)cc1F` (stereo not shown) [Compound 418], the IC50 is less than 100 nM at Human LDHA and 1000 to 10000 nM in the assay with MiaPaCa2 cells.
The matching figures for `NS(=O)(=O)c1ccc(Cc2c(-c3ccc(F)c(C#CC4(F)CCOC4)c3)nn(-c3nc(C(=O)O)cs3)c2CC2CC2)cc1F` (stereo not shown) [Compound 419]: less than 100 nM and less than 1000 nM.
The corresponding values for `CC#Cc1cc(-c2nn(-c3nc(C(=O)OCC)cs3)c(CC3CC3)c2Cc2ccc(S(N)(=O)=O)c(F)c2)ccc1F` [Compound 420] are 1000 to 57000 nM and more than 57000 nM.
The corresponding values for `N[S+](=O)([O-])c1ccc(Cc2c(-c3ccc(F)c(C#CCC4CCCO4)c3)nn(-c3nc(C(=O)O)cs3)c2CC2CC2)cc1F` (stereo not shown) [Compound 421] are less than 100 nM and 1000 to 10000 nM.
With `CC#Cc1cc(-c2nn(-c3nc(C(=O)O)cs3)c(CC3CC3)c2Cc2cccc([S+](N)(=O)[O-])c2)ccc1F` [Compound 422], the IC50 against Human LDHA is less than 100 nM; in the assay with MiaPaCa2 cells, 10000 to 57000 nM.
`NS(=O)(=O)c1ccc(Cc2c(-c3ccc(F)c(C#CC4CCOC4)c3)nn(-c3nc(C(=O)O)cs3)c2CC2CC2)cc1F` (stereo not shown) [Compound 423]: the IC50 was less than 100 nM against Human LDHA and less than 1000 nM with MiaPaCa2 cells.
For `CCOC(=O)c1csc(-n2nc(-c3cccc(C#CC4CCCC4)c3)c(Cc3ccc(S(N)(=O)=O)c(F)c3)c2CC2CC2)n1` [Compound 428], the IC50 against Human LDHA and with MiaPaCa2 cells was more than 57000 nM in each case.
Regarding `CCOC(=O)c1csc(-n2nc(-c3ccc(F)c(C#CC4CCCC4)c3)c(Cc3ccc([S+](N)(=O)[O-])cc3)c2CC2CC2)n1` [Compound 429], the IC50 at Human LDHA is 1000 to 57000 nM; in the assay with MiaPaCa2 cells, more than 57000 nM.
The matching figures for `N[S+](=O)([O-])c1ccc(Cc2c(-c3ccc(F)c(C#CC4CCCC4)c3)nn(-c3nc(C(=O)O)cs3)c2CC2CC2)cc1` [Compound 430]: less than 100 nM and less than 1000 nM.
On to `N[S+](=O)([O-])c1ccc(Cc2c(-c3ccc(F)c(C#CC4CCCC4)c3)nn(-c3nc(C(=O)O)cs3)c2C2CC2)cc1F` [Compound 431], for which the IC50 was less than 100 nM against Human LDHA and less than 1000 nM in the assay with MiaPaCa2 cells.
On to `N[S+](=O)([O-])c1ccc(Cc2c(-c3cccc(C#CC4CCCC4)c3)nn(-c3nc(C(=O)O)cs3)c2CC2CC2)cc1F` [Compound 432], for which the IC50 at Human LDHA was less than 100 nM; in the assay with MiaPaCa2 cells it was less than 1000 nM.
The matching figures for `N[S+](=O)([O-])c1ccc(Cc2c(-c3ccc(F)c(C#CC4CC4)c3)nn(-c3nc(C(=O)O)cs3)c2CC2CC2)cc1` [Compound 433]: less than 100 nM and less than 1000 nM.
The matching figures for `CCOC(=O)c1csc(-n2nc(-c3ccc(F)c(C#CC4CCCC4)c3)c(Cc3ccc(S(N)(=O)=O)c(F)c3)c2C2CC2)n1` [Compound 434]: 1000 to 57000 nM and more than 57000 nM.
The corresponding values for `CCOC(=O)c1csc(-n2nc(-c3ccc(F)c(C#CC4CC4)c3)c(Cc3ccc(S(N)(=O)=O)cc3)c2CC2CC2)n1` [Compound 435] are 1000 to 57000 nM and more than 57000 nM.
For `NS(=O)(=O)c1ccc(Cc2c(-c3ccc(F)c(C#CC4(F)CCCC4)c3)nn(-c3nc(C(=O)O)cs3)c2CC2CC2)cc1F` [Compound 436], the 50% inhibitory concentration (IC50) is less than 100 nM against Human LDHA and less than 1000 nM in the assay on MiaPaCa2 cells.
